# Results from patent US4088778A, “Method for the treatment of hypertension” (priority 1975, dated 1978).
# Read-outs that look alike come from different tables or passages of the source.
# How the values were obtained:
# [1] = Acute toxicity on rats; type: in vivo; conditions: for LD50: rats
# Excerpt: (§1) Toxicities of TN and TA will now be described.
# [2] = Acute toxicity on mice; type: in vivo
# Excerpt: as §1
# [3] = Subacute and chronic toxicities; type: in vivo; conditions: rats 100 to 1000 mg/Kg and beagles 100 mg/Kg daily, 3 or 6 months
# Method: (B) Subacute and Chronic Toxicities:
# TN and TA were separately administered to rats and beagles at daily doses of 100 to 1000 mg/Kg and 100 mg/Kg, respectively, continuously for 3 or 6 months.
# [4] = Teratogenetic property test; type: in vivo, pregnant mice or pregnant rats; conditions: orally, 100 to 1200 mg/Kg
# Excerpt: (C) Teratogenetic Property Test:
# [5] = Hypotensive effect on experimental hypertension caused by DOCA; type: in vivo, male wistar rats
# Method: (A) Hypotensive effect on experimental hypertension caused by administration of desoxycorticosterone (hereinafter referred to as "DOCA"):
# Right kidneys were removed from 6-week-old male wistar rats, and a 1% aqueous solution of sodium chloride was given as drinking water and 12.5 mg/Kg of DOCA was intramuscularly injected every week. The change of the blood pressure was examined over a period of 6 weeks.
# 48 rats, each having one kidney removed, were divided into 6 groups, each consisting of 8 rats, and each group was placed in a cage. With respect to each group, a gum arabic solution was administered to 2 rats as non-administered control animals. 20 mg/Kg of TN was administered once a day to each of two rats among the remaining 6 rats, and 100 mg/Kg of TN was administered once a day to each of two rats among the remaining 4 rats. 88 mg/Kg of TA was administered once a day to each of the remaining two rats. TN and TA were administered in the form of a suspension in gum arabic. The blood pressure was measured by a Shimazu type systolic pressure continuous recording apparatus detecting pulse waves of rats taken in a thermostat fixed box maintained at 30° C.
# [6] = Experiment on young SHR (rats of spontaneous hypertension); type: in vivo, rats (7-week-old female SHR); conditions: 88 mg/kg TA
# Method: Experiments were conducted by using two classes of rats of spontaneous hypertension (hereinafter referred to as "SHR"; provided by Nippon Rat K.K.) differing in the age. In the first experiment, 9-month-old chronic […] SHR (hereinafter referred to as "old SHR"), and in the second experiment, 7-week-old SHR in which hypertension was advancing (hereinafter referred to as "young SHR") was used.
# (B) Experiment on Young SHR:
# 72 of 7-week-old female SHR (having a body weight of 130 to 175 g) were divided into 9 cages, each consisting of 8 rats. Service water was given as drinking water to rats of two cages among these 9 cages, and these rats were compared with other rats which were given a 1% aqueous solution of sodium chloride as drinking water. In each of the […] cages of rats to which the sodium chloride solution was given, no agent was administered to 2 of 8 rats, 20 mg/Kg of TN was administered to another 2 rats, 100 mg/Kg of TN was administered to still another 2 rats, and 88 mg/Kg of TA was administered to the remaining 2 rats.
# After 2 weeks' feeding with the sodium chloride solution, administration was conducted once a day. Within 2 weeks from the start of administration,3 rats in the Control (non-administered) group, one rat in the 20 mg/Kg TN administered group, 3 rats in the 100 mg/Kg TN administered group, 3 rats in the 88 mg/Kg TA administered group and 4 rats in the service water given group were dead. In view of the body weight decrease and the snivel secretion and from the results of autopsy, it was judged that each of them died of pneumonia. The rats that died prior to initiation of the administration were not taken in account in evaluating the experimental results.
# [7] = cited from earlier work
smiles,measurement,setting,value
"CC(=O)Oc1c(C)c(C)c2c(c1C)CCC(C)(CCCC(C)CCCC(C)CCCC(C)C)O2 (racemic) [TA, dl-α-tocopheryl acetate]",animals killed in acute toxicity test,"[1]; mice and rats, maximum amount that can be administered",no test animal was killed
same,LD50,"[1]; rat, in vivo, im, I.M., male, read-out: LD50",> 10000 mg/kg
same,LD50,"[1]; rat, in vivo, ip, I.P., male, read-out: LD50",> 2000 mg/kg
same,LD50,"[1]; rat, in vivo, iv, I.V., male, read-out: LD50",> 250 mg/kg
same,LD50,"[1]; rat, in vivo, po, P.O., male, read-out: LD50",> 15000 mg/kg
same,LD50,"[1]; rat, in vivo, sc, S.C., male, read-out: LD50",> 15000 mg/kg
same,LD50,"[1]; I.M., female",> 10000 mg/kg
same,LD50,"[1]; I.V., female",> 250 mg/kg
same,LD50,"[1]; P.O., female",> 15000 mg/kg
same,LD50,"[1]; S.C., female",> 15000 mg/kg
same,LD50,"[2]; I.M., female",> 15000 mg/kg
same,LD50,"[2]; I.V., female",> 1000 mg/kg
same,LD50,"[2]; P.O., female",> 20000 mg/kg
same,LD50,"[2]; S.C., female",> 20000 mg/kg
same,LD50,"[2]; mouse, in vivo, im, I.M., male, read-out: LD50",> 15000 mg/kg
same,LD50,"[2]; mouse, in vivo, ip, I.P., male, read-out: LD50",> 4000 mg/kg
same,LD50,"[2]; mouse, in vivo, iv, I.V., male, read-out: LD50",> 1000 mg/kg
same,LD50,"[2]; mouse, in vivo, po, P.O., male, read-out: LD50",> 20000 mg/kg
same,LD50,"[2]; mouse, in vivo, sc, S.C., male, read-out: LD50",> 20000 mg/kg
same,deaths,[3],no deaths
same,"haematological, haemetobiological and histological surveys",[3],no manifestation of the toxicity was observed
same,inhibition of the body weight,[3],inhibition of the body weight was not observed
same,"influences on mother animals, embryos and newborn babies",[4],no influences were observed
same,teratogenetic property,[4],no teratogenetic property
same,number of rats with blood pressure elevated to 170 mm Hg or higher,"[5]; 88 mg/kg of TA once a day, among 12 rats (control 9 among 11)",4 rats
same,"hypotensive effect, overall conclusion from pharmacological tests on animals","[5]; DOCA rats, old SHR, young SHR",have a hypotensive effect
same,dead rats within 6 weeks from the start of the administration,"[6]; among 11 rats, control 5 among 11",3 rats
same,dead rats within 2 weeks from the start of administration,"[6]; judged pneumonia, control 3",3 rats
NNc1nncc2ccccc12 [Hydralazine],effect on the heart,[7]; prior art,increases the amount of blood fed to the heart and the pulse frequency and thus increases the load on the heart
same,hypotensive activity,[7]; prior art,high hypotensive activity
same,undesirable side effects,[7]; prior art,multiple arthritis resembling rheumatic arthritis and lupus erythematosus
COC(=O)[C@H]1[C@H]2C[C@@H]3c4[nH]c5cc(OC)ccc5c4CCN3C[C@H]2C[C@@H](OC(=O)c2cc(OC)c(OC)c(OC)c2)[C@@H]1OC [Reserpine],undesirable side effects,[7]; prior art,"inhibition of the central nervous system, such as asthenic feeling"
NS(=O)(=O)c1cc2c(cc1Cl)NCNS2(=O)=O [hydrochlorothiazide],undesirable side effects,[7]; in vivo,"hypokalemia, hypercirycemia and manifestation of latent diabetes"
same,hypotensive activity,[7]; prior art,moderate hypotensive activity
C[C@](N)(Cc1ccc(O)c(O)c1)C(=O)O [l-α-Methyl Dopa],hypotensive activity,[7]; prior art,high hypotensive activity
same,undesirable side effects,[7]; prior art,"mammary hypertrophy, paraesthesia, nightmare and Parkisonism"
CC(COc1ccccc1)N(CCCl)Cc1ccccc1 (stereo not shown) [phenoxybenzamine],undesirable side effects,[7]; prior art,orthostatic hypotensive asthenia and tachycardia
